Assay results from patent US7989479B2, “Use of a p38 kinase inhibitor for treating psychiatric disorders” (GlaxoSmithKline LLC, priority 2006, dated 2011).

Legend:
[1] = system: LPS induced elevations in TNF-a, IL-6, IL-10 and ACTH levels; test: LPS induced elevations of cytokines and HPA-axis markers in blood (biomarker analysis, satellite group); format: in vivo; settings: rats; 20 mg/kg p.o. 1 hour before LPS (125 ug/kg i.p.); blood samples
From the text: (§1) Administration of lipopolysaccharide (LPS) to rats is known to produce not only robust measures of sickness behaviour (reduced locomotor activity, reduced intake of both food and water, decreased body weight & decreased social interest) but also large elevations of peripheral pro-inflammatory cytokines and HPA-axis markers that can mimic some of the symptoms and underlying pathobiology observed in major depressive disorder (Dunn et al., (2005). Neurosci. Behav. Rev., 29, 891-909). Indeed the injection of cytokines into man produces such neuropsychiatric disturbances in non-major depressive disorder patients (Schiepers & Maes (2005). Prog. Neuro-psychopharmacol. & Biol. Psych., 29, 201-217).
(§2) 6-(5-Cyclopropylcarbamoyl-3-fluoro-2-methyl-phenyl)-N-(2,2-dimethylpropyl)-nicotinamide was administered (p.o.) 1 hour before the administration of LPS (125 ug/kg i.p.) and then behavioural assessments were performed 2 hours thereafter. A satelite group of animals were treated in the same way and blood samples taken for biomarker analysis.

[2] = system: LPS induced sickness behaviour; test: LPS induced sickness behaviour in rats; format: in vivo; settings: 20 mg/kg p.o. 1 hour before LPS (125 ug/kg i.p.), behavioural assessments 2 hours thereafter
From the text: as §1, §2

Cc1c(F)cc(C(=O)NC2CC2)cc1-c1ccc(C(=O)NCC(C)(C)C)cn1 [6-(5-Cyclopropylcarbamoyl-3-fluoro-2-methyl-phenyl)-N-(2,2-dimethylpropyl)-nicotinamide]
reduction in LPS induced elevation in ACTH level [1]: > 80%
reduction in LPS induced elevation in IL-6 level [1]: > 80%
reduction in LPS induced elevation in IL-10 level [1]: > 80%
reduction in LPS induced elevation in TNF-a level [1]: > 80%
reversal of LPS induced sickness behaviour [2]: significantly reversed
